In US20240174690A1, “ANNULATED 2-AMINO-3-CYANO THIOPHENES AND DERIVATIVES FOR THE TREATMENT OF CANCER” (BOEHRINGER INGELHEIM INTERNATIONAL GMBH, priority 2021, published 2024):

Tests used:
KRAS (G12D)::SOS1 = KRAS (G12D)::SOS1 (Homo sapiens (Human), UniProt P01116, G12D); assay: KRAS::SOS1 AlphaScreen binding assay, KRAS G12D
In short: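 Compounds (up to 100 μM, eleven fivefold dilutions in duplicate) were incubated 30 min with KRAS 1-169 (10 nM, or 7.5 nM for G12C), GST-SOS1 564-1049 (5 nM for G12D/G12C, 10 nM for others) and 10 μM GDP in PBS buffer with BSA and Tween. Donor/acceptor beads were then added for 60 min at room temperature, and IC50 came from a 4-parameter fit of the AlphaScreen signal.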

AsPC-1 cells = assay: AsPC-1 CTG proliferation assay (120 h) (pancreatic cancer, G12D); type: cell-based; settings: Homo sapiens, ASPC1
In short: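 AsPC-1 cells (KRAS G12D), 2000/well in RPMI with 10% FCS, seeded overnight, then treated with compound for 120 h at 37 °C. Viability by CellTiter-Glo luminescence as percent of DMSO control. IC50 from a four-parameter non-linear fit.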

NCI-H2122 cells = assay: NCI-H2122 CTG proliferation assay (120 h) (NSCLC, G12C); type: cell-based; settings: Homo sapiens
In short: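 NCI-H2122 cells (KRAS G12C NSCLC), 200 per well in RPMI with 10% FCS, were dosed with compound on day 1 and incubated 120 h at 37 °C. Viability was read by CellTiter-Glo luminescence as percent of DMSO control, and IC50 was fitted with a four-parameter model.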

Sequence of KRAS (G12D)::SOS1 (P01116 other isoform, or with tags, fused parts or gaps G12D): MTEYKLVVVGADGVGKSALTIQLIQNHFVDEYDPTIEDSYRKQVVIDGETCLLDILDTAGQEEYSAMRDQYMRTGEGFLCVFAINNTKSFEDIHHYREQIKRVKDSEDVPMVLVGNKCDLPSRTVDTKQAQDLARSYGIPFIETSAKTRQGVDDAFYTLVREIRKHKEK

Structure (SMILES) | IC50 (KRAS (G12D)::SOS1) [µM] | IC50 (AsPC-1 cells) [µM] | IC50 (NCI-H2122 cells) [µM]
C[C@H](Oc1nc(-c2onc3c2CCC[C@@]32CCCc3sc(N)c(C#N)c32)cc(N2CCN(C)C3(CC3)C2)n1)[C@@H]1CCCN1C [I-40] | 0.006 |  | 
C[C@H](Oc1cc(-n2ccc(C(=O)N[C@@H]3CCOC3)n2)nc(-c2onc3c2CCC[C@@]32CCCc3sc(N)c(C#N)c32)n1)[C@@H]1CCCN1C [I-56] | 0.002 | 0.695 | 
C[C@H](Oc1cc(N2CCN(C)C3(CC3)C2)nc(-c2onc3c2CCC[C@@]32CCCc3sc(N)c(C#N)c32)n1)[C@@H]1CCCN1C [I-41] | 0.001 | 0.297 | 3.56
CCOC(=O)c1ccn(-c2cc(O[C@@H](C)[C@@H]3CCCN3C)nc(-c3noc4c3CCC[C@@]43CCCc4sc(N)c(C#N)c43)n2)n1 [II-23] | 0.002 | 1.64 | 2.95
C[C@H](Oc1cc(-c2ccn(C[C@@H](C)O)n2)nc(-c2onc3c2CCC[C@@]32CCCc3sc(N)c(C#N)c32)n1)[C@@H]1CCCN1C [I-30] | 0.002 | 4.57 | 0.837
C[C@H](Oc1cc(-c2ccn3ncnc3c2)nc(-c2onc3c2CCC[C@@]32CCCc3sc(N)c(C#N)c32)n1)[C@@H]1CCCN1C [I-33] | 0.006 | 3.71 | 1.42
C[C@H](Oc1cc(-n2ccc(C(=O)NC3(C)COC3)n2)nc(-c2noc3c2CCC[C@@]32CCCc3sc(N)c(C#N)c32)n1)[C@@H]1CCCN1C [II-26] | 0.002 | 1.38 | 0.143
COCCNC(=O)c1ccn(-c2cc(O[C@@H](C)[C@@H]3[C@@H](OC)CCN3C)nc(-c3onc4c3CCC[C@@]43CCCc4sc(N)c(C#N)c43)n2)n1 [I-55] | 0.001 | 0.565 | 
C[C@H](Oc1cc(-n2nccn2)nc(-c2onc3c2CCC[C@@]32CCCc3sc(N)c(C#N)c32)n1)[C@@H]1CCCN1C [I-29] | 0.006 | 10.3 | 3.13
C[C@H]1CN(C)CCCN1c1cc(N2CCN(C)CC2)nc(-c2noc3c2CCC[C@@]32CCCc3sc(N)c(C#N)c32)n1 [II-30] | 0.004 | 2.39 | 3.55
C[C@H](Oc1cc(-c2ccn(C3COC3)n2)nc(-c2onc3c2CCC[C@@]32CCCc3sc(N)c(C#N)c32)n1)[C@@H]1CCCN1C [I-34] | 0.004 | 4.15 | 1.07
C[C@H](Oc1cc(-c2ccn(CC(C)(C)O)n2)nc(-c2onc3c2CCC[C@@]32CCCc3sc(N)c(C#N)c32)n1)[C@@H]1CCCN1C [I-26] | 0.003 | 2.24 | 1.07
COCCNC(=O)c1ccn(-c2cc(O[C@@H](C)[C@@H]3CCCN3C)nc(-c3onc4c3CCC[C@@]43CCCc4sc(N)c(C#N)c43)n2)n1 [I-58] | 0.001 | 0.696 | 
C[C@H](NC(=O)c1ccn(-c2cc(O[C@@H](C)[C@@H]3CCCN3C)nc(-c3onc4c3CCC[C@@]43CCCc4sc(N)c(C#N)c43)n2)n1)c1ccccn1 [I-59] | 0.001 | 0.444 | 
C[C@H]1CN(C)CCCN1c1nc(-c2onc3c2CCC[C@@]32CCCc3sc(N)c(C#N)c32)cc(N2CCN(C)C3(CC3)C2)n1 [I-42] | 0.035 |  | 
C[C@H](Oc1cc(-n2ccc(C(=O)N[C@H]3CCOC3)n2)nc(-c2onc3c2CCC[C@@]32CCCc3sc(N)c(C#N)c32)n1)[C@@H]1CCCN1C [I-57] | 0.002 | 0.278 | 
CO[C@H]1CCN(C)[C@@H]1[C@H](C)Oc1cc(-n2ccc(CC(=O)NC(C)C)n2)nc(-c2onc3c2CCC[C@@]32CCCc3sc(N)c(C#N)c32)n1 [I-48] | 0.001 | 0.384 | 
C[C@H](Oc1nc(-c2onc3c2CCC[C@@]32CCCc3sc(N)c(C#N)c32)cc(N2CCNC3(CC3)C2)n1)[C@@H]1CCCN1C [I-2] | 0.002 |  | 
CO[C@H]1CCN(C)[C@@H]1[C@H](C)Oc1cc(-n2ccc(C(=O)N[C@@H]3CCOC3)n2)nc(-c2onc3c2CCC[C@@]32CCCc3sc(N)c(C#N)c32)n1 [I-53] | 0.001 | 0.414 | 
C[C@H](O)Cn1ccc(-c2cc(O[C@@H](C)[C@@H]3CCCN3C)nc(-c3onc4c3CCC[C@@]43CCCc4sc(N)c(C#N)c43)n2)n1 [I-31] | 0.003 |  | 
CO[C@H]1CCN(C)[C@@H]1[C@H](C)Oc1cc(-n2ccc(C(=O)N[C@H]3CCOC3)n2)nc(-c2onc3c2CCC[C@@]32CCCc3sc(N)c(C#N)c32)n1 [I-54] | 0.001 | 0.266 | 
C[C@H](Oc1cc(-n2ccc(C(=O)N(C)C3COC3)n2)nc(-c2onc3c2CCC[C@@]32CCCc3sc(N)c(C#N)c32)n1)[C@@H]1CCCN1C [I-60] | 0.001 | 0.779 | 

Other lines, results leading:

IC50 (KRAS (G12D)::SOS1) [µM] | IC50 (AsPC-1 cells) [µM] | IC50 (NCI-H2122 cells) [µM] | Structure (SMILES)
0.002 | 0.694 | 0.128 | C[C@H](Oc1cc(-n2ccc(C(N)=O)n2)nc(-c2noc3c2CCC[C@@]32CCCc3sc(N)c(C#N)c32)n1)[C@@H]1CCCN1C [II-21]
0.001 | 1.45 | 5.5 | C[C@H](Oc1cc([C@@H]2CCN(C)C2)nc(-c2noc3c2CCC[C@@]32CCCc3sc(N)c(C#N)c32)n1)[C@@H]1CCCN1C [II-37]
0.008 | 4.11 | 0.898 | C[C@H](Oc1cc(-c2ccn(C)n2)nc(-c2noc3c2CCC[C@@]32CCCc3sc(N)c(C#N)c32)n1)[C@@H]1C[C@@H](F)CN1C [II-27]
0.001 | 1.64 | 3.5 | C[C@H](Oc1cc(N2CC(N(C)C)C2)nc(-c2noc3c2CCC[C@@]32CCCc3sc(N)c(C#N)c32)n1)[C@@H]1CCCN1C [II-7]
0.002 | 1.41 | 4.12 | C[C@H](Oc1cc(N2C[C@H]3CN(C)C[C@H]3C2)nc(-c2noc3c2CCC[C@@]32CCCc3sc(N)c(C#N)c32)n1)[C@@H]1CCCN1C [II-33]
0.001 | 1.92 | 3.53 | C[C@H]1CN(C)CCCN1c1cc(N2CC[C@H](N(C)C)C2)nc(-c2noc3c2CCC[C@@]32CCCc3sc(N)c(C#N)c32)n1 [II-16]
0.002 | 1.03 | 2.04 | CNC(=O)c1ccn(-c2cc(O[C@@H](C)[C@@H]3CCCN3C)nc(-c3noc4c3CCC[C@@]43CCCc4sc(N)c(C#N)c43)n2)n1 [II-20]
0.001 | 1.49 | 3.1 | C[C@H](Oc1cc(N2CCC(N(C)C)CC2)nc(-c2noc3c2CCC[C@@]32CCCc3sc(N)c(C#N)c32)n1)[C@@H]1CCCN1C [II-48]
0.001 | 0.032 |  | C[C@H](Oc1cc(N2CCNC3(CC3)C2)nc(-c2onc3c2CCC[C@@]32CCCc3sc(N)c(C#N)c32)n1)[C@@H]1C[C@@H](F)CN1C [I-45]
 | 1.39 | 0.112 | C[C@H](Oc1cc(-n2ccsc2=O)nc(-c2noc3c2CCC[C@@]32CCCc3sc(N)c(C#N)c32)n1)[C@@H]1CCCN1C [II-135]
0.001 | 0.02 |  | CO[C@H]1CCN(C)[C@@H]1[C@H](C)Oc1cc(N2CCNC3(CC3)C2)nc(-c2onc3c2CCC[C@@]32CCCc3sc(N)c(C#N)c32)n1 [I-49]
 | 0.059 |  | [2H]C([2H])([2H])N1C[C@H](F)C[C@H]1[C@H](C)Oc1cc(N2CCN(C)C3(CC3)C2)nc(-c2noc3c2CCC[C@@]32CCCc3sc(N)c(C#N)c32)n1 [II-209]
0.001 | 0.22 | 2.42 | C[C@H](Oc1cc(N2CC[C@H](N(C)C)C2)nc(-c2noc3c2CCC[C@@]32CCCc3sc(N)c(C#N)c32)n1)[C@@H]1C[C@@H](F)CN1C [II-15]
0.003 | > 25 | 5.33 | C[C@H](Oc1cc(-n2ccc(C(=O)O)n2)nc(-c2noc3c2CCC[C@@]32CCCc3sc(N)c(C#N)c32)n1)[C@@H]1CCCN1C [II-24]
0.002 | 2.16 | 1.58 | C[C@H](Oc1cc(C2CCCO2)nc(-c2noc3c2CCC[C@@]32CCCc3sc(N)c(C#N)c32)n1)[C@@H]1CCCN1C (stereo partly shown) [II-44]
0.001 | 0.042 | 2.55 | C[C@H](Oc1cc(N2CCNC3(COC3)C2)nc(-c2noc3c2CCC[C@@]32CCCc3sc(N)c(C#N)c32)n1)[C@@H]1CCCN1C [II-31]
0.002 | 0.045 |  | C[C@H](Oc1cc(N2C[C@H](C)NC3(CC3)C2)nc(-c2noc3c2CCC[C@@]32CCCc3sc(N)c(C#N)c32)n1)[C@@H]1C[C@@H](F)CN1C [II-18]
0.001 | 0.609 |  | C[C@H](Oc1cc(N2CCN(C)C3(COC3)C2)nc(-c2onc3c2CCC[C@@]32CCCc3sc(N)c(C#N)c32)n1)[C@@H]1C[C@@H](F)CN1C [I-37]
0.001 | 0.115 |  | CO[C@@H]1C[C@@H]([C@H](C)Oc2cc(N3CCN(C)C4(CC4)C3)nc(-c3onc4c3CCC[C@@]43CCCc4sc(N)c(C#N)c43)n2)N(C)C1 [I-50]
 | 0.015 |  | [2H]C([2H])([2H])N1C[C@H](F)C[C@H]1[C@H](C)Oc1cc(N2CCNC3(CC3)C2)nc(-c2noc3c2CCC[C@@]32CCCc3sc(N)c(C#N)c32)n1 [II-208]
0.001 | 0.149 |  | C[C@H](Oc1cc(N2CCN(C)C3(CC3)C2)nc(-c2onc3c2CCC[C@@]32CCCc3sc(N)c(C#N)c32)n1)[C@@H]1C[C@@H](F)CN1C [I-39]
0.002 | 0.251 |  | C[C@@H]1CN(c2cc(O[C@@H](C)[C@@H]3C[C@@H](F)CN3C)nc(-c3noc4c3CCC[C@@]43CCCc4sc(N)c(C#N)c43)n2)CC2(CC2)N1 [II-17]
